Source: ChEMBL document CHEMBL1201862, “PubChem BioAssay data set” (2004)
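Where inhibition never reached the appropriate level, the endpoint shown equals the highest concentration tested. Otherwise, values were interpolated linearly from a five-concentration, 48-hour dose response in 96-well plates. GI50 = concentration required for 50% inhibition of growth.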 Active and inactive are the calls of the source. Cut-off read from the data, not from the text of the source: active = GI50 up to about 1.1 µM and inactive = higher.

What was measured:
Experiment in all cases: inhibition of tumour cell growth, NCI panel, 48 h
[1] = test system: BT-549
[2] = test system: SNB-78
[3] = test system: HOP-18
[4] = test system: DMS-273
[5] = test system: LXFL 529
[6] = test system: DMS-114
[7] = test system: XF498
[8] = test system: KM-20L2

Cc1sc(NC=C2C(=O)CC(C)(C)CC2=O)nc1-c1ccccc1
GI50 [1]: > 100 µM (inactive)

S=C1NC2=C(COC/C2=C\c2ccccc2Cl)C(c2ccccc2Cl)N1 (configuration not stated)
GI50 [1]: 48.8 µM (inactive)

CN(C)/C=C/c1ccncc1
GI50 [1]: > 100 µM (inactive)

O=C(O)c1nc2nc(Cl)c(Cl)nc2[nH]1
GI50 [1]: > 100 µM (inactive)

CN(C)CC1CCC/C(=C\c2ccc(OC(=O)/C=C/c3ccccc3)cc2)C1=O (configuration not stated)
GI50 [1]: 2.11 µM (inactive)

N#CC(NNC(=O)Cc1ccccc1)c1ccccc1O (configuration not stated)
GI50 [2]: 80.5 µM (inactive)
GI50 [3]: 13.2 µM (inactive)
GI50 [4]: 6.59 µM (inactive)
GI50 [5]: 15.2 µM (inactive)
GI50 [1]: 21 µM (inactive)

CC1=CC[C@@H]2[C@@H](CC[C@@]2(C)O)C(C)(C)[C@H]1CC[C@@H]1[C@@]2(C)CC[C@@H](O)C(C)(C)O[C@@H]2CC[C@]1(C)O
GI50 [1]: 18.4 µM (inactive)

CCOC(=O)C1=C(C)NC(=O)NC1c1ccc(N(CCCl)CCCl)cc1Cl (configuration not stated)
GI50 [1]: 15.5 µM (inactive)

COc1cc(-c2cc(=O)c3c(OC)c(OC)c(OC)c(OC)c3o2)cc(OC)c1OC [HEPATAMETHOXYFLAVONE]
GI50 [1]: 48.6 µM (inactive)

COc1ccc([C@@H]2CC(=O)NCCCCNCCCN2)cc1
GI50 [2]: > 100 µM (inactive)
GI50 [6]: > 100 µM (inactive)
GI50 [3]: > 100 µM (inactive)
GI50 [7]: > 100 µM (inactive)
GI50 [4]: > 100 µM (inactive)
GI50 [5]: > 100 µM (inactive)
GI50 [8]: > 100 µM (inactive)

O=S(=O)(O)c1ccc2c(/N=N/c3c(O)ccc4ccccc34)cccc2c1
GI50 [1]: > 100 µM (inactive)

CC1CC[C@@]2(OC1)OC1C[C@H]3[C@@H]4CCC5CC(O)CC[C@]5(C)[C@H]4C/C(=N\N(C)C)[C@]3(C)C1[C@@H]2C (some centres not stated)
GI50 [1]: 29.4 µM (inactive)

CCOC(=O)NC(Nc1ccc(S(=O)(=O)Nc2ncccn2)cc1)(C(=O)OCC)C(F)(F)F (configuration not stated)
GI50 [1]: > 100 µM (inactive)

CNC(=S)/C(=N\Nc1[nH]cnc1C(N)=O)C(N)=S
GI50 [1]: 29.9 µM (inactive)

Cc1ccc(NC(=S)NNC(=O)c2cc(-c3ccccc3)nc3ccccc23)cc1
GI50 [1]: 15.7 µM (inactive)

CCCCOC(=O)C(=O)C(CCC(=O)c1ccc(C)cc1)C(=O)C=C(C)C (configuration not stated)
GI50 [1]: > 100 µM (inactive)

O=C(/C=C/c1ccccc1Cl)c1cccc2ccccc12
GI50 [2]: 20.3 µM (inactive)
GI50 [6]: 4.46 µM (inactive)
GI50 [3]: 16.1 µM (inactive)
GI50 [4]: 13.4 µM (inactive)
GI50 [5]: 3.06 µM (inactive)
GI50 [8]: 7.06 µM (inactive)

CNC(=S)NN=C1NCCCN1
GI50 [1]: > 100 µM (inactive)

CN1C(=O)C(/C=N/NC(=O)c2cccnc2)C(N)N(C)C1=O (configuration not stated)
GI50 [1]: > 100 µM (inactive)

CCOC(=O)C(=Cc1ccccc1Cl)C(=O)OCC
GI50 [1]: 1.62 µM (inactive)

CCOP(=O)(OCC)/C(C#N)=C\c1ccsc1
GI50 [2]: > 100 µM (inactive)
GI50 [6]: > 100 µM (inactive)
GI50 [3]: > 100 µM (inactive)
GI50 [7]: > 100 µM (inactive)
GI50 [4]: > 100 µM (inactive)
GI50 [5]: > 100 µM (inactive)
GI50 [8]: > 100 µM (inactive)

COc1ccccc1C(O)[C@@H]1C[C@@H]2[C@H]3CC[C@@](C)([C@@H]2O1)C3(C)C (some centres not stated)
GI50 [1]: 18.1 µM (inactive)

CCCCCCCCCCCCCCCC(=O)OCC(COP(=O)(O)OCCNC(=O)CCSSc1ccccn1)OC(=O)CCCCCCCCCCCCCCC (configuration not stated)
GI50 [1]: > 100 µM (inactive)

O=C(OC1CN2CCC1CC2)N(c1ccccc1)c1ccccc1 (configuration not stated)
GI50 [1]: > 100 µM (inactive)

O=C(c1ccc([N+](=O)[O-])cc1)C(Br)C(Br)c1ccnc2ccccc12 (configuration not stated)
GI50 [1]: 7.59 µM (inactive)

CCCCCCCCCCCCCC(=O)OCC1OC(n2cc(F)c(=O)[nH]c2=O)C(N)C(OC(=O)CCCCCCCCCCCCC)C1O (configuration not stated)
GI50 [2]: > 100 µM (inactive)
GI50 [6]: > 100 µM (inactive)
GI50 [4]: > 100 µM (inactive)
GI50 [5]: > 100 µM (inactive)
GI50 [8]: > 100 µM (inactive)

CC(C)O/N=C/c1cc(NC(=S)OC(C)C)ccc1Cl
GI50 [1]: 55.5 µM (inactive)
